Residues, ends and D or L forms follow the SMILES beside them.
Key:
[1] = target: Neuronal acetylcholine receptor; alpha3/beta2 (Homo sapiens, UniProt P17787+P32297); experiment: Inhibition of alpha3beta2 nAChR; assay type: protein-complex assay
[2] = Selectivity for alpha3beta2 nAChR over alpha6beta2 nAChR
[3] = target: Neuronal acetylcholine receptor; alpha6/beta2 (Homo sapiens, UniProt P17787+Q15825); experiment: Inhibition of alpha6beta2 nAChR; assay type: protein-complex assay
[4] = Selectivity ratio of IC50 for alpha6beta2 nAChR to IC50 for alpha3beta2 nAChR

Sequence of Neuronal acetylcholine receptor; alpha3/beta2 (P17787 whole entry): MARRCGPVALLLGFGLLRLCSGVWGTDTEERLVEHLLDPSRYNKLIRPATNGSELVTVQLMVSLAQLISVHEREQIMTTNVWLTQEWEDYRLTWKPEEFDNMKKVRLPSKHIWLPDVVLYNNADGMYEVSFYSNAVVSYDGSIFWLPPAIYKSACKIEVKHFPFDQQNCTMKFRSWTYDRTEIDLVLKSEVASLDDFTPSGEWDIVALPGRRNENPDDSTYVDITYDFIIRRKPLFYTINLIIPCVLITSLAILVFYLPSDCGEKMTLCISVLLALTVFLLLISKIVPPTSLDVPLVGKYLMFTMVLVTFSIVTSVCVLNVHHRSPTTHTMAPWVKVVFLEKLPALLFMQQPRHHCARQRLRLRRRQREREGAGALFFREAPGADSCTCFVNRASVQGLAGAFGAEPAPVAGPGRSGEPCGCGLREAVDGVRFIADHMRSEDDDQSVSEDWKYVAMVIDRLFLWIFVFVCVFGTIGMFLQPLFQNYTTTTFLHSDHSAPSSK
Sequence of Neuronal acetylcholine receptor; alpha3/beta2 (P32297 whole entry): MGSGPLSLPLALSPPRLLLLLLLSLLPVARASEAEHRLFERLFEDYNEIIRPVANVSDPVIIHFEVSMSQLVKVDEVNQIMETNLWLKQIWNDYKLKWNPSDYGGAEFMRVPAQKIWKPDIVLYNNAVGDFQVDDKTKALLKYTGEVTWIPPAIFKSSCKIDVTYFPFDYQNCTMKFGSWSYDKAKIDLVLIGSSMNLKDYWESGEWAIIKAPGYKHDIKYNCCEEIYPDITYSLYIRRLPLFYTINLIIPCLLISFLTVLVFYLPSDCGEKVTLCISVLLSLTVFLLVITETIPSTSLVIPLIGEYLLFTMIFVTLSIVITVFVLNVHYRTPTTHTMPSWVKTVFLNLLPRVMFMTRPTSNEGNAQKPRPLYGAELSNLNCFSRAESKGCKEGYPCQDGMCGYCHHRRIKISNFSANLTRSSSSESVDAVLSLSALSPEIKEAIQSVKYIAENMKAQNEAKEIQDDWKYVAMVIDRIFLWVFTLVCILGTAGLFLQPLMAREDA
Sequence of Neuronal acetylcholine receptor; alpha6/beta2 (P17787 whole entry): as the sequence (P17787 whole entry) above
Sequence of Neuronal acetylcholine receptor; alpha6/beta2 (Q15825 whole entry): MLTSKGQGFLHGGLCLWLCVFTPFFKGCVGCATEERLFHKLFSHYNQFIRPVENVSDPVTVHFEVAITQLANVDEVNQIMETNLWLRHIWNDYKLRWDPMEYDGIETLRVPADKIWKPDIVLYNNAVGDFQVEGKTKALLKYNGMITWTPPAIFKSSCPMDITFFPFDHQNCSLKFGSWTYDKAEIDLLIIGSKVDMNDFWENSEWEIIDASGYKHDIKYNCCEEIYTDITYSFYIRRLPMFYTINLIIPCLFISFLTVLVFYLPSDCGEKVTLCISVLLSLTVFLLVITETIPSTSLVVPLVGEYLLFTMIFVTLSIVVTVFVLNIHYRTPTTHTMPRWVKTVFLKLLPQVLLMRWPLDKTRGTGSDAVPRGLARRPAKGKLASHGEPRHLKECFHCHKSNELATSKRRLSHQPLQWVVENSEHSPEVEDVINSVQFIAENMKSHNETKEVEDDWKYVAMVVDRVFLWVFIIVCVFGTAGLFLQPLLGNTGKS

| Structure (SMILES) | IC50 [1] | Selectivity ratio [2] | IC50 [3] | Ratio IC50 [4] |
| --- | --- | --- | --- | --- |
| CC[C@H](C)[C@H](NC(=O)[C@H](CS)NC(=O)[C@@H]1CCCN1C(=O)[C@@H]1CCCN1C(=O)[C@H](CCCNC(=N)N)NC(=O)[C@H](CO)NC(=O)[C@H](CS)NC(=O)[C@H](CS)NC(=O)CN)C(=O)N[C@@H](C)C(=O)N[C@@H](CC(N)=O)C(=O)N[C@@H](CC(N)=O)C(=O)N1CCC[C@H]1C(=O)N[C@@H](CC(=O)O)C(=O)N[C@@H](CC(C)C)C(=O)N[C@@H](CS)C(=O)O | 3.5 nM |  |  |  |
| CC[C@H](C)[C@H](NC(=O)[C@H](Cc1cnc[nH]1)NC(=O)[C@@H]1CCCN1C(=O)[C@H](CC(N)=O)NC(=O)[C@H](CC(N)=O)NC(=O)[C@@H](NC(=O)[C@H](CC(N)=O)NC(=O)[C@H](CS)NC(=O)[C@H](C)NC(=O)[C@@H]1CCCN1C(=O)[C@H](Cc1cnc[nH]1)NC(=O)[C@H](CO)NC(=O)[C@H](CS)NC(=O)[C@H](CS)NC(=O)CN)C(C)C)C(=O)N[C@@H](CS)C(=O)NCC(=O)O (H-GCCSHPACNVNNPHICG-OH) | 11 nM | 20 | 201 nM | 0.0547 |
| CC(C)C[C@H](NC(=O)[C@@H](NC(=O)[C@H](C)NC(=O)[C@H](CS)NC(=O)[C@@H]1CCCN1C(=O)[C@@H]1CCCN1C(=O)[C@@H](NC(=O)[C@H](CO)NC(=O)[C@H](CS)NC(=O)[C@H](CS)NC(=O)CN)[C@@H](C)O)C(C)C)C(=O)N[C@@H](Cc1ccc(O)cc1)C(=O)N[C@@H](CS)C(=O)O (H-GCCSTPPCAVLYC-OH) | 5.72 nM | 20 | 0.26 nM | 22 |
